This note sets out measurements from ChEMBL document CHEMBL5465560, “Selectivity Literature for EUbOPEN Chemogenomic Library” (2024).

Molecules are shown by their SMILES. Where only a bound is given, the exact number is not on record here.

One test concerns the target Vasopressin V2 receptor (Homo sapiens, UniProt P30518). Put plainly: Selectivity interaction (Eurofins CEREP Diversity Profile (receptors and ion channels)) EUB0000279b AVPR2. As to conditions: at 10 µM.
Test [1] addresses Serine/threonine-protein kinase PAK 3 (Homo sapiens) (UniProt O75914). As to conditions: at 10 µM.
For test [2], the target named is Fibroblast growth factor receptor 1 (Homo sapiens, UniProt P11362). Put plainly: Selectivity interaction (KinomeScan (DiscoverX)) EUB0000666a FGFR1. Particulars: at 10 µM.
Sequence of Fibroblast growth factor receptor 1 (P11362 22-822 limits assumed): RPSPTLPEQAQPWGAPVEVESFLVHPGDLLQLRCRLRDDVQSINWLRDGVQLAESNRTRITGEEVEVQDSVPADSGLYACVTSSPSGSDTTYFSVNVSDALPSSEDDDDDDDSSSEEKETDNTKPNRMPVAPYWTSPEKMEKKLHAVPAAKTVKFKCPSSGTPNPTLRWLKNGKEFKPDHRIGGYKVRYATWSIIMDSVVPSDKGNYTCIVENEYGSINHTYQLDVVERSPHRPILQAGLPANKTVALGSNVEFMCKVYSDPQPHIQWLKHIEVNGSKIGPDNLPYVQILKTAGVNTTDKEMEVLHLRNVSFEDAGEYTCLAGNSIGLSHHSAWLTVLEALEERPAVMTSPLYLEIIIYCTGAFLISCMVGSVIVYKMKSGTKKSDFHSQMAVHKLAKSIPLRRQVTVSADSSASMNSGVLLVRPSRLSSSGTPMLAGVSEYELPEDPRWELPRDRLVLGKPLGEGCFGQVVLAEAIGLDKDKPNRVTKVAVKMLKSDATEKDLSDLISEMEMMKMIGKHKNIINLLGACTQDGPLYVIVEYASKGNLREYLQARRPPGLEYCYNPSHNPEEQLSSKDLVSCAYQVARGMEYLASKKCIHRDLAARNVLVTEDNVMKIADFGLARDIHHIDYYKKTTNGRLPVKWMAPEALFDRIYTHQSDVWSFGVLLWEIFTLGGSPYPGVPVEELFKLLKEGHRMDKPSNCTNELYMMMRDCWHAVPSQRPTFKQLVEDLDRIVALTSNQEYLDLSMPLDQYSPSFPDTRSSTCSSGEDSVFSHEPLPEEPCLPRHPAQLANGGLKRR
In test [3] the target is Protein kinase C theta type (Homo sapiens, UniProt Q04759). The experiment in a line: Selectivity interaction (SelectScreen profiling (Invitrogen)) EUB0000607a PRKCQ. Particulars: at 2 µM.
Sequence of Protein kinase C theta type (Q04759 whole entry, looked up): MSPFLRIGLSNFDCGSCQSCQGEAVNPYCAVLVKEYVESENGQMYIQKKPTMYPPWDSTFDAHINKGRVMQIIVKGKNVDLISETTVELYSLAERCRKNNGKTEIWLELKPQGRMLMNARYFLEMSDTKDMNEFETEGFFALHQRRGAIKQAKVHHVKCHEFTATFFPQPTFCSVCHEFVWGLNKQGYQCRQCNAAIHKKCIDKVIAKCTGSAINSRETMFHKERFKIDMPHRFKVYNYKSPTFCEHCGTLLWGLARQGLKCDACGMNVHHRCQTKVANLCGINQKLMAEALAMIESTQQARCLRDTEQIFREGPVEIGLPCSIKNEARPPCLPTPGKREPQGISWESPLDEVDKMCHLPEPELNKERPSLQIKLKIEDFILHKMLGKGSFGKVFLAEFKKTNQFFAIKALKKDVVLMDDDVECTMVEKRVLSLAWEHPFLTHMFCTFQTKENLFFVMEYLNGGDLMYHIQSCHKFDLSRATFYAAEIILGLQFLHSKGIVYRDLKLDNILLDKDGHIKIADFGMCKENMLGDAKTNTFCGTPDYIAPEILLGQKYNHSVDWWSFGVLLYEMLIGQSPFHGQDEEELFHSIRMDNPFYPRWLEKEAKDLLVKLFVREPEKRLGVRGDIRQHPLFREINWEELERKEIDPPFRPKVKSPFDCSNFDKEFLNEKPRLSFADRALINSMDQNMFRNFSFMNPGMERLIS
The target in test [4] is Serine/threonine-protein kinase SBK1 (Homo sapiens) (UniProt Q52WX2). Particulars: at 10 µM.
Test [5] deals with T1, Serine/threonine-protein kinase TAO3 (Homo sapiens) (UniProt Q9H2K8).
T1 sequence (whole entry): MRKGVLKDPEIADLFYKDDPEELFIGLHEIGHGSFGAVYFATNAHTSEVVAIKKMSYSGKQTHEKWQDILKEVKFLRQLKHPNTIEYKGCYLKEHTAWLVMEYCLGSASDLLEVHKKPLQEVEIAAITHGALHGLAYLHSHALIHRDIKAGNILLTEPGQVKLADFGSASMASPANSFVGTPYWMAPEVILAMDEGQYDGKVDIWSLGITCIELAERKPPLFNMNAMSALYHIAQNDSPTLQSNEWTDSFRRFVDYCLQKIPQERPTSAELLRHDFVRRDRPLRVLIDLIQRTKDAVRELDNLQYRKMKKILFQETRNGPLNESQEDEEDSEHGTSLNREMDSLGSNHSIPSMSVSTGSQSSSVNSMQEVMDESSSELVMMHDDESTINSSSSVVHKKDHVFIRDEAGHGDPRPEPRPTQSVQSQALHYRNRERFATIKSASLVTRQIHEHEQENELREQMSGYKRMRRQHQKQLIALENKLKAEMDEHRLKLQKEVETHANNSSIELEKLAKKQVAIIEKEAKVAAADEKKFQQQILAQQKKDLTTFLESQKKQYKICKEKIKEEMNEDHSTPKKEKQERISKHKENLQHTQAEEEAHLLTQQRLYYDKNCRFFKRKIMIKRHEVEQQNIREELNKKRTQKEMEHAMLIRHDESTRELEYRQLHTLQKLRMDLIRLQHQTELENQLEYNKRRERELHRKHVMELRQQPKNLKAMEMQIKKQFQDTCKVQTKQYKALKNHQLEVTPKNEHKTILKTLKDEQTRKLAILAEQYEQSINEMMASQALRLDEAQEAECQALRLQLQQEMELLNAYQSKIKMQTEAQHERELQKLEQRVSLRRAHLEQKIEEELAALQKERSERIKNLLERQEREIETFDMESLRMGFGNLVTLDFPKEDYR
Particulars: at 10 µM.

The target in test [6] is Phosphatidylinositol 4,5-bisphosphate 3-kinase catalytic subunit beta isoform (Homo sapiens) (UniProt P42338). Put plainly: Selectivity interaction (KinomeScan (DiscoverX)) EUB0001049a PIK3CB. As to conditions: at 1 µM.
Test [7] addresses T2, Muscarinic acetylcholine receptor M2 (Homo sapiens) (UniProt P08172).
T2 sequence (whole entry): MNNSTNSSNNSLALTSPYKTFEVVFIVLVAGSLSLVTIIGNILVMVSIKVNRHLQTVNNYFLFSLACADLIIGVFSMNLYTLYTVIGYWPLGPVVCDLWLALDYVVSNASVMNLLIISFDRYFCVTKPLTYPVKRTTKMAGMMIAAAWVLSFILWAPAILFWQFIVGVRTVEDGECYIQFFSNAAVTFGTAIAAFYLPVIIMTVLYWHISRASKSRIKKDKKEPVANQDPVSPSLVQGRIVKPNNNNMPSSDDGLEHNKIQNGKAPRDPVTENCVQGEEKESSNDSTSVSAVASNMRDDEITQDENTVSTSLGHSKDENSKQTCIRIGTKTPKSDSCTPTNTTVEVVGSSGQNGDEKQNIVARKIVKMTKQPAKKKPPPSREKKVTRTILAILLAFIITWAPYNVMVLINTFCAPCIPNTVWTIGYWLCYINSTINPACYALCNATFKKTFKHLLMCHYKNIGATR
Put plainly: Selectivity interaction (Panel of kinases, GPCRs, ion channels and transporters (enzymatic assay)) EUB0000223bCl CHRM2.

In test [8] the target is Histone-lysine N-methyltransferase SETD2 (Homo sapiens) (UniProt Q9BYW2). Put plainly: Selectivity interaction (Methyltransferase screen (radiometric assays, panel of 8 PRMTs, 21 protein lysine methyltransferases, 3 DNA methyltransferases, and one RNA methyltransferase)) EUB0000271b SETD2.
Sequence of Histone-lysine N-methyltransferase SETD2 (Homo sapiens) (Q9BYW2 whole entry, canonical isoform): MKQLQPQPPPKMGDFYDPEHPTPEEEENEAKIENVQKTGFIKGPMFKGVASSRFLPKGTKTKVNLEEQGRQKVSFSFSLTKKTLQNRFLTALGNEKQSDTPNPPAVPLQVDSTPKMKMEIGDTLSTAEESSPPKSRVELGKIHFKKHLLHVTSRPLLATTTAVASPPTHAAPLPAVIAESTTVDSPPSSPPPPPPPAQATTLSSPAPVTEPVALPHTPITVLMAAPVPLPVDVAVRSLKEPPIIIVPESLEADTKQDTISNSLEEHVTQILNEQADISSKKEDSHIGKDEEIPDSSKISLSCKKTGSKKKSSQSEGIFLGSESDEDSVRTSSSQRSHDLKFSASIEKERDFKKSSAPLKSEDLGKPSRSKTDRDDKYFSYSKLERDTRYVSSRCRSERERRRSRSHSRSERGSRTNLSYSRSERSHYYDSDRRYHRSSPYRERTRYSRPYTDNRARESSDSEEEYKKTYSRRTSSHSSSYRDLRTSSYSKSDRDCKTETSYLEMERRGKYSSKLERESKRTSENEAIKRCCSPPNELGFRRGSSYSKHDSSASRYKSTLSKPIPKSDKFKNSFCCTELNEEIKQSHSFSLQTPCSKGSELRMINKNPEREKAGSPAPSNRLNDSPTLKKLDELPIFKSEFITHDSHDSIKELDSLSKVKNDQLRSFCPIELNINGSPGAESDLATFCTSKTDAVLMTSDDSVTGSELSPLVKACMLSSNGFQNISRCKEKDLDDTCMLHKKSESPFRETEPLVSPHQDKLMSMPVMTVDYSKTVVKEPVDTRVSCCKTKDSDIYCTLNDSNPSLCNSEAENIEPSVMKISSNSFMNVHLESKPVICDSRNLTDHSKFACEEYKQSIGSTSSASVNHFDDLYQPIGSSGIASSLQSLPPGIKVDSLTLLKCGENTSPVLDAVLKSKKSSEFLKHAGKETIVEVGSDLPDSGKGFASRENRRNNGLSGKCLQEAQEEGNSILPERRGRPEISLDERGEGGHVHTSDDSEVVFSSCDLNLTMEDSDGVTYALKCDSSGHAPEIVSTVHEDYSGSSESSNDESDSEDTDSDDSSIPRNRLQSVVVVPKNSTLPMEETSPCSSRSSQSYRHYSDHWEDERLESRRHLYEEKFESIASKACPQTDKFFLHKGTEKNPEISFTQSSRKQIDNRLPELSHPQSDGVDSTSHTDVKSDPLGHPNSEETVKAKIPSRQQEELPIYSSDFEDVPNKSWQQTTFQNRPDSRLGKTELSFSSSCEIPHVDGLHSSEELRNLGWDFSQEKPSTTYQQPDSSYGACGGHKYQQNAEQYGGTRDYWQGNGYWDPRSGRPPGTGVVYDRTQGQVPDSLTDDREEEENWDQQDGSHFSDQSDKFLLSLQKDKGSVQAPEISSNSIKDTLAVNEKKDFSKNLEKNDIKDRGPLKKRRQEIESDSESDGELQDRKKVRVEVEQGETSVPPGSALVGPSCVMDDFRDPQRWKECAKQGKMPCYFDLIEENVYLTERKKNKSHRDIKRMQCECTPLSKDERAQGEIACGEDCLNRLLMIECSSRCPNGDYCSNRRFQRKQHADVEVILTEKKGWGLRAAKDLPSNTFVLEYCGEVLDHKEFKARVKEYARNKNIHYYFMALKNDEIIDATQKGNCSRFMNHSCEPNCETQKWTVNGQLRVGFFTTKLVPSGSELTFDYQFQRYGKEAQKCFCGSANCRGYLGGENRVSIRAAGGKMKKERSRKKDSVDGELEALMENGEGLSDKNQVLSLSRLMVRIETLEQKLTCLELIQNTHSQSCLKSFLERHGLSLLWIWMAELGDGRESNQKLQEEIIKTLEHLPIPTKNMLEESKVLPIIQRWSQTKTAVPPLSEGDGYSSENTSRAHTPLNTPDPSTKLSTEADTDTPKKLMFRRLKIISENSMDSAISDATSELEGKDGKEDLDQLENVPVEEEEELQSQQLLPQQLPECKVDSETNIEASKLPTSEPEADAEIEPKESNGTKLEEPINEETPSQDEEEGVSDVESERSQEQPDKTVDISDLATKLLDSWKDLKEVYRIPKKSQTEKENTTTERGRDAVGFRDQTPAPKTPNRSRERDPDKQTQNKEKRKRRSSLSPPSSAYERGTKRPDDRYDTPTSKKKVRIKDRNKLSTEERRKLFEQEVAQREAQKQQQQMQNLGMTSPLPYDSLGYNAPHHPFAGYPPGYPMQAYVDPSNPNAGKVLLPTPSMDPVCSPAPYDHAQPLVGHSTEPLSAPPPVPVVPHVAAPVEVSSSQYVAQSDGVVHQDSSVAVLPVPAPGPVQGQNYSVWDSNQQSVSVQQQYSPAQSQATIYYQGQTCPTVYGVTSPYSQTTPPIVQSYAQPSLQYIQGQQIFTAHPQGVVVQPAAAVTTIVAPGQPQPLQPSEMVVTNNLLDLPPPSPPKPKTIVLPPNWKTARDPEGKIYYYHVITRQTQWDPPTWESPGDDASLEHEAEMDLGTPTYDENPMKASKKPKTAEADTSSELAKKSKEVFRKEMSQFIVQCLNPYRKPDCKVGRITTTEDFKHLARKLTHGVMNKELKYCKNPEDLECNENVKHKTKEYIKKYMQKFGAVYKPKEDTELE
Test [9] concerns the target T3, Phosphatidylinositol 4,5-bisphosphate 3-kinase catalytic subunit delta isoform (Homo sapiens) (UniProt O00329).
T3 sequence (whole entry): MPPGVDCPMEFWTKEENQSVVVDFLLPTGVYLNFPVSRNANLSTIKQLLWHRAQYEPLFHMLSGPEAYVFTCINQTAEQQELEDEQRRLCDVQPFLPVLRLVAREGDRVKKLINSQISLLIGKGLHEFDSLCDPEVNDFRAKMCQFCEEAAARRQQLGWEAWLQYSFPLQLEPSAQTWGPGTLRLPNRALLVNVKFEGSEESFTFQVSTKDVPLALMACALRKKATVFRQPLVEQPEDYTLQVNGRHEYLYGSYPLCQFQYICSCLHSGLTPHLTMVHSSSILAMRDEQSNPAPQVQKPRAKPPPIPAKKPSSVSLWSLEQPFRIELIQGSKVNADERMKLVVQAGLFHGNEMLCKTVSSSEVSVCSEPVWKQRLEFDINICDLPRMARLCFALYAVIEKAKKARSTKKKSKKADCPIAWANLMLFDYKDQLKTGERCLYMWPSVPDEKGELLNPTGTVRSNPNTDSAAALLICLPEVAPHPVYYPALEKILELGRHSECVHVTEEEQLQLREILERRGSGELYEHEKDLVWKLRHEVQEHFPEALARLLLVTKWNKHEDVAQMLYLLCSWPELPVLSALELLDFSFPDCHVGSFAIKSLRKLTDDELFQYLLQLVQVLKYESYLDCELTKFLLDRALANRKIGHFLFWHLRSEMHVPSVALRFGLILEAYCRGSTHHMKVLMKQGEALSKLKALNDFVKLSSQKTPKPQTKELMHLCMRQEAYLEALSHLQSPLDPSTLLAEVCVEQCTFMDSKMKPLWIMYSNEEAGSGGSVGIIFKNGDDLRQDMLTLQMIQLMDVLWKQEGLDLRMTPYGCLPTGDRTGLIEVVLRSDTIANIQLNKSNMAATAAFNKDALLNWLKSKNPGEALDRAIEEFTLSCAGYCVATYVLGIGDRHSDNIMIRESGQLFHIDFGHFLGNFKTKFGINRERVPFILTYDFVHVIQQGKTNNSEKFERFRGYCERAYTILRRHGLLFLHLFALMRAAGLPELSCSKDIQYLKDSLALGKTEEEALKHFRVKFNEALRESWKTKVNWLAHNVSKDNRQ
The experiment in a line: Selectivity interaction (KinomeScan (DiscoverX)) EUB0001079a PIK3CD. Particulars: at 1 µM.

Sequence of Serine/threonine-protein kinase PAK 3 (Homo sapiens) (O75914 whole entry, looked up): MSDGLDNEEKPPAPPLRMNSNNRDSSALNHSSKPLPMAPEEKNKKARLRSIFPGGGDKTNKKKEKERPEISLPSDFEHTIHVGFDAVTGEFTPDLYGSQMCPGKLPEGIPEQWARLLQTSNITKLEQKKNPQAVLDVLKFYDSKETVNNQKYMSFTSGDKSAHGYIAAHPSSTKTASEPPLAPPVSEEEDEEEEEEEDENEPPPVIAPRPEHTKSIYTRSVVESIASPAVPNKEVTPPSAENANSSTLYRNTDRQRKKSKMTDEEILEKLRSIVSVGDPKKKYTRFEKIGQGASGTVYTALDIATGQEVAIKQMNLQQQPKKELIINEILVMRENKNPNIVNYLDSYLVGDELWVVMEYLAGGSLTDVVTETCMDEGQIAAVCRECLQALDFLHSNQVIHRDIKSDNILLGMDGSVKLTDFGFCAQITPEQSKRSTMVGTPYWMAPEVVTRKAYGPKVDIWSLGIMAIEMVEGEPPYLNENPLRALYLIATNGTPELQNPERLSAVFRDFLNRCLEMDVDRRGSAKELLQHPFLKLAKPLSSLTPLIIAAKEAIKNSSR
Sequence of Vasopressin V2 receptor (P30518 whole entry): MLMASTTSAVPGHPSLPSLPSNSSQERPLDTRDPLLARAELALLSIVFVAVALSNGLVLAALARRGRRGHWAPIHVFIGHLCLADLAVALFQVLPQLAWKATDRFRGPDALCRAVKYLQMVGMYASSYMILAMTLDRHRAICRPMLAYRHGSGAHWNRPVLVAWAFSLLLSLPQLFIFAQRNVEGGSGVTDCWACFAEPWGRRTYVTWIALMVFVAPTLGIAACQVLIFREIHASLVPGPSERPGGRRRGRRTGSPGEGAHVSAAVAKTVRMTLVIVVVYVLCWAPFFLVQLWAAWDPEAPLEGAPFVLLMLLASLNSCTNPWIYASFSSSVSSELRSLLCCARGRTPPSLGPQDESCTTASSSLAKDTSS

`CC(=O)c1cc(-c2ccccc2OCC2CC2)c2ncccn12` displayed a % of control at Vasopressin V2 receptor of 109%.

With `CCN(CC)CCCCNc1ncc2cc(-c3cc(OC)cc(OC)c3)c(NC(=O)NC(C)(C)C)nc2n1`, in test [1], the % of control was found to be 100%.

`O=C(NOC[C@H](O)CO)c1ccc(F)c(F)c1Nc1ccc(I)cc1F` displayed a % of control in [2] of 100%.

In test [3], `CNC(=O)Nc1ccc(-c2nc(N3CC4CCC(C3)O4)c3cnn(C4CCC5(CC4)OCCO5)c3n2)cc1` registered a % of inhibition of 5%.

For `Cc1cc([C@@H](C)Nc2ccccc2C(=O)O)c2nc(N3CCOCC3)cc(=O)n2c1` [AZD-6482], the % of control in test [4] and in test [5] was 100% each time.

In the case of `COc1cc(Nc2nc(C)cc(-c3cnn4nc(OC)ccc34)n2)cc(C(F)(F)F)c1`, the % of control in test [6] was determined as 55%.

Molecule `COc1cc(C(=O)N2CC[C@@H](O)[C@@H](N)C2)cc2nc(-c3cc4ccccc4n3CC3CC3)n(C)c12` showed a pXC50 in [7] of less than 4.8 M.

As for `Cc1cc(C)cc([C@@H]2c3cc(C)ccc3NC(=O)CN2C(=O)c2ccc(Br)s2)c1`, the values for the % of activity in test [8] (at 1 µM) and in test [8] (at 10 µM) were 104% and 101%, respectively.

Molecule `Nc1cnc(N2CCc3cc(S(=O)(=O)Nc4c(F)cc(Cl)cc4F)cc(N4CCCC4=O)c32)nc1` [TP-020n] came in with a % of control in test [9] of 88%.
